In patent US10323013B2, “Inhibitors of the IRE-1/XBP-1 pathway and methods of using thereof” (H. LEE MOFFITT CANCER CENTER AND RESEARCH INSTITUTE, INC., priority 2013, dated 2019):
Entries after “also recorded” stand apart in the source; their conditions may differ.

How the values were obtained:
[1] = Pharmacokinetics of B-I09 in mouse plasma; format: in vivo; conditions: 50 mg/kg intraperitoneally
Procedure: In vivo pharmacokinetics studies were carried out at Agilux Laboratories, Inc. (Worchester, Mass.) using male CD-1 mice (Charles River Laboratories, Wilmington, Mass.). B-I09 was administered intraperitoneally at 50 mg/kg as a solution in DMSO to a group of 3 male CD-1 mice. Compound blood was collected via tail snip into calibrated microvette tubes containing K2EDTA at 0.25, 0.5, 1, 2, 4, 8, and 24 h post dosing. Blood samples were stored on wet ice until processed to plasma by centrifugation within 1 hour of collection. All plasma samples were transferred to 96 well plates and stored at −80° C. until analyzed for B-I09 concentration via LC/MS/MS using a C18 RP-HPLC column (2.1×50 mm) and an acetonitrile:water (with 0.1% formic acid) mobile phase elution gradient. B-I09 was quantified by analysis with API 5500 TurbolonSpray positive ion MS detection. A non-compartmental model was applied to calculate pharmacokinetic parameters using WinNonlin 4.2 software.

[2] = Degradation (chemical stability) studies by HPLC/LCMS; format: physicochemical
Procedure: The degradation of analog 24 was plotted as a function of time upon exposure to FRET-suppression assay buffer at rt. Aliquots were partitioned with MeOH and injected onto LCMS (UV monitored at 320 nm) and peaks integrated relative to internal standard.
A 20 mM stock solution of B-I09 in DMSO was diluted to 0.5 mM in FRET assay buffer (20 mM HEPES, pH 7.5, 50 mM KOAc, 0.5 mM MgCl2, 3 mM DTT, 0.4% PEG) or cell culture media (RPMI supplemented with 10% fetal bovine serum). The FRET assay buffer and cell culture media solutions were incubated at room temperature and 37° C., respectively. At various time points, a 50 μL aliquot of each solution was added to 50 μL of methanol and the mixture analyzed by analytical reverse-phase HPLC (C18 4 mm×150 mm column, 1 mL/min flow rate) with acetonitrile/water (0.1% formic acid) as eluent. Absorbance was read at 320 nm and the degradation product (aldehyde) was identified by LCMS and co-injection with pure synthetic sample. Degradation studies were carried out in duplicate and data points reported as the mean of two values.

[3] = tested on: XBP-1s expression; experiment: Inhibition of XBP-1s expression in LPS-stimulated mouse B cells (immunoblots); format: cell-based; conditions: LPS 48 h, then inhibitor 20 μM for 24 h (Example 3 prints 20 mM)
Procedure: The protein concentrations of the supernatants were determined by BCA assay (Pierce). […] Proteins were transferred to nitrocellulose membranes, blocked in 5% milk (wt/vol in PBS), and immunoblotted with the indicated antibodies and appropriate horseradish peroxidase-conjugated secondary antibodies. Following multiple washes in PBS, the blots were developed using Western Lighting Chemiluminescence Reagent (Perkin-Elmer).
(§2) Protein concentrations were determined by BCA assays (Pierce). […] Proteins were transferred to nitrocellulose membranes, blocked in 5% non-fat milk (wt/vol in PBS), and immunoblotted with indicated primary antibodies and appropriate horseradish peroxidase-conjugated secondary antibodies. Immunoblots were developed using Western Lighting Chemiluminescence Reagent (Perkin-Elmer).

[4] = tested on: phosphorylation of BTK; experiment: BCR activation and phosphorylation assay; format: cell-based; conditions: wild-type and Eμ-TCL1 B cells, B-I09 20 μM, F(ab′)2 anti-mouse IgM
Procedure: XBP-1^WT/Eμ-TCL1 B cells, XBP-1^KO/Eμ-TCL1 B cells, B-I09-treated wild-type B cells or B-I09-treated Eμ-TCL1 B cells were suspended in RPMI serum-free media supplemented with 25 mM Hepes, stimulated with F(ab′)^2 fragments of the goat anti-mouse IgM antibody (20 μg/ml) (SouthemBiotech) for 2 min, and lysed immediately by adding ice-cold lysis buffer (50 mM Tris-HCl, pH 8.0; 150 mM NaCl; 1% Triton X-100; 1 mM EDTA) supplemented with protease inhibitor cocktail (Roche), 4 mM sodium pyrophosphate, 2 mM sodium vanadate and 10 mM sodium fluoride. The lysates were analyzed by SDS-PAGE. Phosphorylated proteins of interest were detected by immunoblots using phospho-specific antibodies.

[5] = tested on: primary human CLL cells; experiment: Cell proliferation XTT assay, primary human CLL cells; format: cell-based; conditions: 20 μM, 3 days
Procedure: (§1) Eμ-TCL1, MEC1, MEC2, WaC3, or primary human CLL cells were grown in 96-well cell culture plates overnight and then treated with fresh phenol red-free culture medium containing STF-083010 (50 μM), A-I06 (50 μM), A-I07 (50 μM) or fludarabine (30 μM). […] Briefly, 50 μl XTT labeling reagent was combined with 100 μl electron-coupling reagent, and the mixture was applied to each well of the 96-well plates. The test was based on cleavage of the yellow tetrazolium salt XTT by mitochondrial dehydrogenases of the metabolic active cells to form the orange formazan compound, which can be spectrophotometrically quantified at 492 nm using a BioTek microplate reader.

[6] = tested on: CLL-bearing Eμ-TCL1 mice; format: in vivo
Procedure: (B) CLL-bearing Eμ-TCL1 mice were intraperitoneally injected with DMSO (n=3) or B-I09 (50 mg/kg in DMSO, n=8) daily for the first 5 days weekly for three weeks. Blood was collected to measure lymphocyte numbers using a HemaTrue Hematology Analyzer (HESKA). Data were compared with lymphocyte counts prior to B-I09 injections, and plotted as mean±SEM. (C) Lymphocyte counts in the peripheral blood of B-I09-treated Eμ-TCL1 mice (n=8) were plotted as mean±SEM. […] (E) Splenocytes from DMSO- or B-I09-injected Eμ-TCL1 mice were stained with IgM-PE-Cy7, B220-FITC, CD5-APC, Annexin V-PE and 7-AAD. Gated IgM+/B220+/CD5+ splenic CLL cells were analyzed for Annexin V- and/or 7-AAD-positive populations. (F) Percentages of apoptotic cells in gated IgM^+/B220^+/CD5^+ CLL populations from spleens of DMSO-injected (n=3) or B-I09-injected (n=8) Eμ-TCL1 mice were plotted as mean±SEM. (G) Weight of DMSO-injected (n=3) or B-I09-injected (n=8) Eμ-TCL1 mice was plotted as mean±SD. (H) Paraffin-embedded sections of indicated organs from Eμ-TCL1 mice receiving three weeks of injections with DMSO or B-I09 were stained with hematoxylin and eosin.
Tumor-bearing Eμ-TCL1 mice in which CLL cells comprise the majority of the lymphocytes in the peripheral blood (FIG. 33) were selected. The mice were then treated with 50 mg/kg B-I09 on the first five days of each week for three weeks. […] Since CLL cells proliferate in secondary lymphoid organs and are protected from cell death through interactions with microenvironments, whether B-I09 has an effect on CLL cells residing in the spleen was evaluated.

[7] = tested on: Eμ-TCL1 CLL cells; experiment: Cell proliferation XTT assay, Eμ-TCL1 CLL cells; format: cell-based, mouse; conditions: 20 μM, 3 days
Procedure: as §1

[8] = Aqueous solubility (stated in words); format: physicochemical
[9] = tested on: XBP-1 mRNA splicing; experiment: XBP-1 mRNA splicing by RT-PCR; format: cell-based; conditions: human WaC3 CLL cells, 24 h
Description: Total RNA was isolated using TRIzol reagent (Invitrogen). Complementary DNA was synthesized from RNA using Superscript II reverse transcriptase (Invitrogen).

[10] = tested on: MEC1; experiment: cells; conditions: Homo sapiens, MEC1, 48 h, read-out: GI50 (50% growth inhibition) concentration
[11] = tested on: MEC2; experiment: cells; conditions: Homo sapiens, MEC2, 48 h, read-out: GI50 (50% growth inhibition) concentration
[12] = tested on: WaC3; experiment: cells; conditions: Homo sapiens, 48 h, read-out: GI50 (50% growth inhibition) concentration
[13] = tested on: Mino and Jeko cells; experiment: PARP cleavage by immunoblot in Mino and Jeko cells; conditions: 50 mM (so in the source), 72 h
Procedure: Cells were lysed for the analysis of the indicated proteins by immunoblot.
as §2

[14] = tested on: XBP-1s expression in Jeko cells; experiment: Inhibition of XBP-1s expression in Jeko cells (immunoblots and densitometry); format: cell-based, human; conditions: various doses, 24 h
Procedure: as §2

[15] = tested on: XBP-1s expression in Mino cells; experiment: Inhibition of XBP-1s expression in Mino cells (immunoblots and densitometry); format: cell-based, human; conditions: various doses, 24 h
Procedure: as §2

Question: For `O=c1oc2c(C3OCCCO3)c(O)ccc2c2c1CNCC2` [Compound 28, 7-(1,3-dioxan-2-yl)-8-hydroxy-3,4-dihydro-1H-chromeno[3,4-c]pyridin-5(2H)-one], which peak concentration [1] is on record?
Answer: The peak concentration was roughly 39 µM.

Question: And the “time of peak concentration after administration” value [1]?
Answer: The value was 15 min.

Question: And the half-life ([1]; male, CD-1, ip)?
Answer: Its half-life is roughly 1.5 h.

Question: And the “fraction intact in cell culture media” value ([2]; 37° C., 24 h)?
Answer: Its value is “greater than 50%”.

Question: What about the half-life at 0.5 mM ([2]; cell culture media, 37° C., read-out: t1/2 in cell culture media (converted)) of the same compound?
Answer: Its half-life at 0.5 mM is roughly 30 h.

Question: And the “stability of 1,3-dioxane group in FRET-suppression assay buffer (in words)” value ([2]; room temperature, up to 48 h, listed as B-I09)?
Answer: Its value is “remains completely intact; also recorded: stable”.

Question: What about the “inhibition of XBP-1s expression (in words)” value [3] of the same compound?
Answer: The value was “highly effective”.

Question: And the “BCR signaling, phosphorylation of BTK (in words)” value [4]?
Answer: Its value is “reduced phosphorylation of BTK”.

Question: What about the “inhibition of growth of CLL cells from human patients (in words)” value [5] of the same compound?
Answer: The value was “most potent inhibitor”.

Question: And the “apoptotic CD5+ CLL cells in the spleens (in words)” value ([6]; 50 mg/kg for three weeks vs DMSO)?
Answer: Its value is “significant increase”.

Question: And the “CLL in the peripheral blood (in words)” value ([6]; 50 mg/kg i.p., first five days of each week for three weeks)?
Answer: Its value is “Clear CLL regression”.

Question: What about the “numbers of lymphocytes in the peripheral blood (in words)” value ([6]; after three weeks, normal range 500-5000 cells/μL) of the same compound?
Answer: Its value is “dropped close to the normal range”.

Question: What about the “expression of XBP-1s in CLL cells from peripheral blood (in words)” value ([6]; immunoblots, B-I09-injected mice) of the same compound?
Answer: The value was “inhibits the expression of XBP-1s”.

Question: What about the “adverse effects or toxicity to mice (in words)” value ([6]; three weeks of treatment) of the same compound?
Answer: The value was “no apparent adverse effects or toxicity”.

Question: What about the “weight loss and histological changes to vital organs (liver, lungs, kidney, heart)” value ([6]; three weeks of treatment) of the same compound?
Answer: Its value is “no significant weight loss or apparent histological changes”.

Question: And the “inhibition of mouse CLL cell growth (in words)” value [7]?
Answer: The value was “more effective than B-H09 and 4μ8C”.

Question: And the “solubility (in words)” value [8]?
Answer: Its value is “water soluble”.

Question: And the “inhibition of splicing of XBP-1 mRNA (in words)” value [9]?
Answer: Its value is “highly effective”.

Question: For `C=CC(=O)N1CCC[C@@H](n2nc(-c3ccc(Oc4ccccc4)cc3)c3c(N)ncnc32)C1` [ibrutinib], which GI50 [10] is on record?
Answer: The GI50 was 10 to 20 µM.

Question: And the GI50 [11]?
Answer: Its GI50 is 10 to 20 µM.

Question: What about the GI50 [12] of the same compound?
Answer: Its GI50 is 10 to 20 µM.

Question: Which “PARP cleavage (in words)” value [13] does the source give for `CN1CCc2c(c(=O)oc3c(C=O)c(O)ccc23)C1` [Compound 30, 8-hydroxy-3-methyl-5-oxo-2,3,4,5-tetrahydro-1H-chromeno[3,4-c]pyridine-7-carbaldehyde] here?
Answer: Its value is “induced PARP cleavage more strongly than either 21b or 5”.

Question: Which results are given for `CC(=O)N1CCc2c(c(=O)oc3c(C=O)c(O)ccc23)C1` [Compound 29, 3-acetyl-8-hydroxy-5-oxo-2,3,4,5-tetrahydro-1H-chromeno[3,4-c]pyridine-7-carbaldehyde]?
Answer: IC50 for blocking XBP-1s expression (in words) [14]: sub-micromolar range; IC50 for blocking XBP-1s expression (in words) [15]: sub-micromolar range
